Assay results as given in patent publication US10065956B2, “Ethynyl derivatives” (Hoffmann-La Roche Inc., priority 2015, dated 2018).

Target: T1, human mGlu4 receptor (Homo sapiens, UniProt Q14833)
T1 construct: expressed in transfected cells; host or cells: monoclonal HEK-293 cell line, stably transfected
Test: Ca2+ mobilization in vitro assay on recombinant human mGlu4 expressed in HEK293 cells (PAM, L-AP4 at EC20)
Assay type: cell-based
Conditions: for Emax: HEK293, maximal response in % of the maximal stimulatory effect obtained with saturating concentrations of L-AP4, read-out: Eff. (%); for EC50: HEK293 cells expressing human mGlu4, L-AP4 added at EC20
Excerpt: FIG. 1: Illustration of the experimental outline for mGlu4 PAM Ca2+ mobilization screening assay and the determination of EC50 and % Emax values.
Determination of EC50 Values Using a Ca2+ Mobilization In Vitro Assay on Recombinant Human mGlu4 Expressed in HEK293 Cells:
A monoclonal HEK-293 cell line stably transfected with a cDNA encoding for the human mGlu4 receptor was generated; for the work with mGlu4 Positive Allosteric Modulators (PAMs), a cell line with low receptor expression levels and low constitutive receptor activity was selected to allow the differentiation of agonistic versus PAM activity. Cells were cultured according to standard protocols (Freshney, 2000) in Dulbecco's Modified Eagle Medium with high glucose supplemented with 1 mM glutamine, 10% (vol/vol) heat-inactivated bovine calf serum, Penicillin/Streptomycin, 50 μg/ml hygromycin and 15 μg/ml blasticidin (all cell culture reagents and antibiotics from Invitrogen, Basel, Switzerland).
About 24 hrs before an experiment, 5×10^4 cells/well were seeded in poly-D-lysine coated, black/clear-bottomed 96-well plates. The cells were loaded with 2.5 μM Fluo-4AM in loading buffer (1×HBSS, 20 mM HEPES) for 1 hr at 37° C. and washed five times with loading buffer. The cells were transferred into a Functional Drug Screening System 7000 (Hamamatsu, Paris, France), and 11 half logarithmic serial dilutions of test compound at 37° C. were added and the cells were incubated for 10-30 min. with on-line recording of fluorescence. Following this pre-incubation step, the agonist (2S)-2-amino-4-phosphonobutanoic acid (L-AP4) was added to the cells at a concentration corresponding to EC20 with on-line recording of fluorescence; in order to account for day-to-day variations in the responsiveness of cells, the EC20 of L-AP4 was determined immediately ahead of each experiment by recording of a full dose-response curve of L-AP4. Responses were measured as peak increase in fluorescence minus basal (i.e. fluorescence without addition of L-AP4), normalized to the maximal stimulatory effect obtained with saturating concentrations of L-AP4. Graphs were plotted with the % maximal stimulatory using XLfit, a curve fitting program that iteratively plots the data using Levenburg Marquardt algorithm. The single site competition analysis equation used was y=A+((B−A)/(1+((x/C)D))), where y is the % maximal stimulatory effect, A is the minimum y, B is the maximum y, C is the EC50, x is the log 10 of the concentration of the competing compound and D is the slope of the curve (the Hill Coefficient). From these curves the EC50 (drug concentration at which 50% of the maximal receptor activation was achieved), the Hill coefficient as well as the maximal response in % of the maximal stimulatory effect obtained with saturating concentrations of L-AP4 were calculated (see FIG. 1). […] A depression of the signal observed after addition of the EC20 concentration of L-AP4 was indicative of an inhibitory activity of the test compound.

T1 sequence (Q14833 33-912): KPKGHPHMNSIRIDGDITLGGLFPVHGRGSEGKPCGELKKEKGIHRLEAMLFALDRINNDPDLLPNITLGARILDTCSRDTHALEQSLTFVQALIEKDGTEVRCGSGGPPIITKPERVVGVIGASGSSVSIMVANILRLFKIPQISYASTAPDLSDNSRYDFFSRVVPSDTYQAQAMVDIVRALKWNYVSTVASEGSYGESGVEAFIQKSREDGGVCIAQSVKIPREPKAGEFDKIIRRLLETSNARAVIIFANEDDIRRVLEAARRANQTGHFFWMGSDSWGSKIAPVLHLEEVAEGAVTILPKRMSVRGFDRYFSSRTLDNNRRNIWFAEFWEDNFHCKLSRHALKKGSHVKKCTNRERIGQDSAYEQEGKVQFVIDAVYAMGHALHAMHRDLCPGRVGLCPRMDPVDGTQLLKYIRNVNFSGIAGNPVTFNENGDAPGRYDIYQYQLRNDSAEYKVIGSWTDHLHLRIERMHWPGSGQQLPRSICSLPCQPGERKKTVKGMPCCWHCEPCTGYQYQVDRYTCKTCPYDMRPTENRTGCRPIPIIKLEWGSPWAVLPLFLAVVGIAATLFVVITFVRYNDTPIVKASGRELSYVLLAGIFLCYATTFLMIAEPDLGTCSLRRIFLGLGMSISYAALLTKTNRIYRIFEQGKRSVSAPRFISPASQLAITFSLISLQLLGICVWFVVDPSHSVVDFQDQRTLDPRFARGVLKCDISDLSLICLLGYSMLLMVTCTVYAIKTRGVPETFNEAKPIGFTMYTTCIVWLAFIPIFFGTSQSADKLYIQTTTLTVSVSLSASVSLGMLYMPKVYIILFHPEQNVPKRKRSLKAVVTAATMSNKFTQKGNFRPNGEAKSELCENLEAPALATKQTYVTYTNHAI

Emax [%] | EC50 [nM] | Structure (SMILES)
98 | 88 | CN1C(=O)N(c2c(F)cc(C#Cc3ccccc3)cc2F)C(=O)C[C@@]1(C)c1ccn(C2CCOC2)n1 (mixture of isomers) [Example 64, (6S)-3-[2,6-Difluoro-4-(2-phenylethynyl)phenyl]-1,6-dimethyl-6-[1-[(3RS)-tetrahydrofuran-3-yl]pyrazol-3-yl]hexahydropyrimidine-2,4-dione]
137 | 54 | COCCn1cc([C@]2(C)CC(=O)N(c3c(F)cc(C#Cc4ccccc4)cc3F)C(=O)N2C)cn1 [Example 20, (6S)-3-[2,6-Difluoro-4-(2-phenylethynyl)phenyl]-6-[1-(2-methoxyethyl)pyrazol-4-yl]-1,6-dimethyl-hexahydropyrimidine-2,4-dione]
117 | 23 | COCCCn1ccc([C@]2(C)CC(=O)N(c3c(F)cc(C#Cc4ccccc4)cc3F)C(=O)N2C)n1 [Example 31, (6S)-3-[2,6-Difluoro-4-(2-phenylethynyl)phenyl]-6-[1-(3-methoxypropyl)pyrazol-3-yl]-1,6-dimethyl-hexahydropyrimidine-2,4-dione]
139 | 36 | CC(C)n1cc([C@]2(C)CC(=O)N(c3c(F)cc(C#Cc4ccccc4)cc3F)C(=O)N2C)cn1 [Example 19, (6S)-3-[2,6-Difluoro-4-(2-phenylethynyl)phenyl]-6-(1-isopropylpyrazol-4-yl)-1,6-dimethyl-hexahydropyrimidine-2,4-dione]
139 | 80 | CN1C(=O)N(c2c(F)cc(C#Cc3ccc(F)cc3F)cc2F)C(=O)C[C@@]1(C)c1cnn(C)c1 [Example 58, (6S)-3-[4-[2-(2,4-Difluorophenyl)ethynyl]-2,6-difluoro-phenyl]-1,6-dimethyl-6-(1-methylpyrazol-4-yl)hexahydropyrimidine-2,4-dione]
99 | 71 | CN1C(=O)N(c2c(F)cc(C#Cc3ccccc3)cc2F)C(=O)C[C@@]1(C)c1ccn(CC(C)(C)O)n1 [Example 63, (6S)-3-[2,6-Difluoro-4-(2-phenylethynyl)phenyl]-6-[1-(2-hydroxy-2-methyl-propyl)pyrazol-3-yl]-1,6-dimethyl-hexahydropyrimidine-2,4-dione]
167 | 38 | CN1C(=O)N(c2c(F)cc(C#Cc3ccccc3)cc2F)C(=O)C[C@@]1(C)c1cnsc1 [Example 15, (6S)-3-[2,6-Difluoro-4-(2-phenylethynyl)phenyl]-6-isothiazol-4-yl-1,6-dimethyl-hexahydropyrimidine-2,4-dione]
165 | 123 | CN1C(=O)N(c2c(F)cc(C#Cc3ccccc3)cc2F)C(=O)C[C@@]1(C)c1ccno1 [Example 41, (6S)-3-[2,6-Difluoro-4-(2-phenylethynyl)phenyl]-6-isoxazol-5-yl-1,6-dimethyl-hexahydropyrimidine-2,4-dione]
141 | 39 | CN1C(=O)N(c2c(F)cc(C#Cc3cccnc3)cc2F)C(=O)C[C@@]1(C)c1cnn(C)c1 [Example 24, (6S)-3-[2,6-Difluoro-4-[2-(3-pyridyl)ethynyl]phenyl]-1,6-dimethyl-6-(1-methylpyrazol-4-yl)hexahydropyrimidine-2,4-dione]
127 | 31 | CN1C(=O)N(c2c(F)cc(C#Cc3ccccc3)cc2F)C(=O)C[C@@]1(C)c1cnn(C2CC2)c1 [Example 52, (6S)-6-(1-Cyclopropylpyrazol-4-yl)-3-[2,6-difluoro-4-(2-phenylethynyl)phenyl]-1,6-dimethyl-hexahydropyrimidine-2,4-dione]
139 | 96 | CCn1ccc([C@]2(C)CC(=O)N(c3c(F)cc(C#Cc4ccccc4)cc3F)C(=O)N2C)n1 [Example 28, (6S)-3-[2,6-Difluoro-4-(2-phenylethynyl)phenyl]-6-(1-ethylpyrazol-3-yl)-1,6-dimethyl-hexahydropyrimidine-2,4-dione]
147 | 108 | CN1C(=O)N(c2c(F)cc(C#Cc3ccccc3)cc2F)C(=O)C[C@@]1(C)c1cnn(CCO)c1 [Example 23, (6S)-3-[2,6-Difluoro-4-(2-phenylethynyl)phenyl]-6-[1-(2-hydroxyethyl)pyrazol-4-yl]-1,6-dimethyl-hexahydropyrimidine-2,4-dione]
103 | 110 | Cn1cc([C@]2(C)CC(=O)N(c3c(F)cc(C#Cc4ccccc4)cc3F)C(=O)N2)cn1 [Example 5, (6S)-3-[2,6-Difluoro-4-(2-phenylethynyl)phenyl]-6-methyl-6-(1-methylpyrazol-4-yl)hexahydropyrimidine-2,4-dione]
109 | 121 | CN1C(=O)N(c2c(F)cc(C#Cc3ccccc3)cc2F)C(=O)C[C@@]1(C)c1cn(C)cn1 [Example 2, (6S)-3-[2,6-Difluoro-4-(2-phenylethynyl)phenyl]-1,6-dimethyl-6-(1-methylimidazol-4-yl)hexahydropyrimidine-2,4-dione]
128 | 71 | CN1C(=O)N(c2c(F)cc(C#Cc3ccccc3)cc2F)C(=O)C[C@@]1(C)c1cnn(C2CCOC2)c1 (mixture of isomers) [Example 62, (6S)-3-[2,6-Difluoro-4-(2-phenylethynyl)phenyl]-1,6-dimethyl-6-[1-[(3RS)-tetrahydrofuran-3-yl]pyrazol-4-yl]hexahydropyrimidine-2,4-dione]
152 | 39 | CN1C(=O)N(c2c(F)cc(C#Cc3ccccc3)cc2F)C(=O)C[C@@]1(C)c1ccsn1 [Example 38, (6S)-3-[2,6-Difluoro-4-(2-phenylethynyl)phenyl]-6-isothiazol-3-yl-1,6-dimethyl-hexahydropyrimidine-2,4-dione]
134 | 84 | CN1C(=O)N(c2c(F)cc(C#Cc3ccccc3)cc2F)C(=O)C[C@@]1(C)c1cc[nH]n1 [Example 10, (6S)-3-[2,6-Difluoro-4-(2-phenylethynyl)phenyl]-1,6-dimethyl-6-(1H-pyrazol-3-yl)hexahydropyrimidine-2,4-dione]
98 | 36 | CN1C(=O)N(c2c(F)cc(C#Cc3ccccc3)cc2F)C(=O)C[C@@]1(C)c1cnn(C)c1 [Example 6, (6S)-3-[2,6-Difluoro-4-(2-phenylethynyl)phenyl]-1,6-dimethyl-6-(1-methylpyrazol-4-yl)hexahydropyrimidine-2,4-dione]
135 | 86 | CN1C(=O)N(c2c(F)cc(C#Cc3ccccc3)cc2F)C(=O)C[C@@]1(C)c1cncs1 [Example 42, (6S)-3-[2,6-Difluoro-4-(2-phenylethynyl)phenyl]-1,6-dimethyl-6-thiazol-5-yl-hexahydropyrimidine-2,4-dione]
148 | 71 | Cc1ncc([C@]2(C)CC(=O)N(c3c(F)cc(C#Cc4ccccc4)cc3F)C(=O)N2C)s1 [Example 39, (6S)-3-[2,6-Difluoro-4-(2-phenylethynyl)phenyl]-1,6-dimethyl-6-(2-methylthiazol-5-yl)hexahydropyrimidine-2,4-dione]
142 | 37 | CN1C(=O)N(c2c(F)cc(C#Cc3ccccc3)cc2F)C(=O)C[C@@]1(C)c1ccon1 [Example 40, (6S)-3-[2,6-Difluoro-4-(2-phenylethynyl)phenyl]-6-isoxazol-3-yl-1,6-dimethyl-hexahydropyrimidine-2,4-dione]
99 | 157 | CN1C(=O)N(c2c(F)cc(C#Cc3ccccc3)cc2F)C(=O)C[C@@]1(C)c1nn(C)c2ccccc12 [Example 8, (6S)-3-[2,6-Difluoro-4-(2-phenylethynyl)phenyl]-1,6-dimethyl-6-(1-methylindazol-3-yl)hexahydropyrimidine-2,4-dione]
146 | 69 | CN1C(=O)N(c2c(F)cc(C#Cc3ccccc3)cc2F)C(=O)C[C@@]1(C)c1ccn(C)n1 [Example 26, (6S)-3-[2,6-Difluoro-4-(2-phenylethynyl)phenyl]-1,6-dimethyl-6-(1-methylpyrazol-3-yl)hexahydropyrimidine-2,4-dione]
